Measurements from patent publication EP0501442B1, “8-chloro-benzothiazepine-compound for prophylaxis and treatment of sequelae of cerebral neurocyte necrosis” (priority 1991, dated 1992).

Assay: Acute oral toxicity (50 % lethal dose) in mice
Conditions: mouse, in vivo, orally administered to mice, read-out: 50 % lethal dose (LD₅₀)
Procedure: Further, the benzothiazepine derivative (I) or a pharmacologically acceptable salt thereof has low toxicity and high safety. For example, when 2-(4-methoxyphenyl)-3-acetoxy-5-[2-(dimethylamino)ethyl]-8-chloro-2,3-dihydro-1,5-benzothiazepin-4(5H)-one·maleate is orally administered to mice, its 50 % lethal dose (LD₅₀) was about 800 mg/kg.

## COc1ccc([C@@H]2Sc3cc(Cl)ccc3N(CCN(C)C)C(=O)[C@@H]2OC(C)=O)cc1 [(+)-cis-2-(4-methoxyphenyl)-3-acetoxy-5-[2-(dimethylamino)ethyl]-8-chloro-2,3-dihydro-1,5-benzothiazepin-4(5H)-one·maleate]
  LD50: ~800 mg/kg
